Here are results for 14 compounds from ChEMBL document CHEMBL1132074, “Potent and selective bicyclic lactam inhibitors of thrombin: Part 3: P1' modifications” (Bioorg Med Chem Lett, 1999).

One test concerns the target Prothrombin (Homo sapiens, UniProt P00734). Nature of the test: Inhibition of human Thrombin.
Test [1] concerns the target T1, Serine protease 1 (Homo sapiens, UniProt P07477). Nature of the test: In vitro inhibitory activity against human trypsin.
Test [2] addresses T1, Serine protease 1. Nature of the test: In vitro inhibitory activity against human trypsin at 100 uM.

Bounds are passed on as bounds.

In general, IC50 refers to the midpoint of a concentration-inhibition curve. For orientation: inhibition means the percentage by which the read-out fell short of the control.

T1 sequence (P07477 whole entry): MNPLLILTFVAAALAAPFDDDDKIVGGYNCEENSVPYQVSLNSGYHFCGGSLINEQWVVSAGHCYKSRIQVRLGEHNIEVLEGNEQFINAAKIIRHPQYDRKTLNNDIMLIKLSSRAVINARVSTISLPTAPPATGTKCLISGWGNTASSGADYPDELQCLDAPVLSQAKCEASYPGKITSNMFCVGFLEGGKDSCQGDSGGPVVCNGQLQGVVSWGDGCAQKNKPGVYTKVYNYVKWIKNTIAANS

Take `N=C(N)NCCC[C@H](NC(=O)[C@@H]1CC[C@H]2CN(C(=O)CCc3ccccc3)CC(=O)N21)C(=O)c1ccccn1`: the half-inhibitory concentration (IC50) against Prothrombin amounted to 0.34 µM; against Serine protease 1 [1], 0.16 µM.

For `Cn1c(C(=O)[C@H](CCCCN)NC(=O)[C@@H]2CC[C@H]3CN(C(=O)CCc4ccccc4)CC(=O)N32)nc2ccccc21`, the IC50 against Prothrombin was 2.05 µM; against Serine protease 1 [1], 8.49 µM.

On to `Cn1c(C(=O)[C@H](CCCNC(=N)N)NC(=O)[C@@H]2CC[C@H]3CN(C(=O)CCc4ccccc4)CC(=O)N32)nc2ccccc21`, for which the IC50 at Prothrombin was 0.051 µM; against Serine protease 1 [1], 3.36 µM.

Take `Cn1c(C(=O)[C@H](Cc2cccc(C(=N)N)c2)NC(=O)[C@@H]2CC[C@H]3CN(C(=O)CCc4ccccc4)CC(=O)N32)nc2ccccc21`: the figures for the half-maximal inhibitory concentration (IC50) at Prothrombin and on Serine protease 1 [1] were 0.45 µM and 18.7 µM, respectively.

In the case of `N=C(N)NCCC[C@H](NC(=O)[C@@H]1CC[C@H]2CN(C(=O)CCc3ccccc3)CC(=O)N21)C(=O)c1nc2c(s1)CCC2`, the figures for the IC50 at Prothrombin and against Serine protease 1 [1] were 0.018 µM and 0.002 µM, respectively.

Consider `Cn1ccnc1C(=O)[C@H](CCCNC(=N)N)NC(=O)[C@@H]1CC[C@H]2CN(C(=O)CCc3ccccc3)CC(=O)N21`, for which the figures for the IC50 against Prothrombin and at Serine protease 1 [1] were 2.37 µM and 27.4 µM, respectively.

Compound `Cn1c(C(=O)[C@H](CC2CCCN(C(=N)N)C2)NC(=O)[C@@H]2CC[C@H]3CN(C(=O)CCc4ccccc4)CC(=O)N32)nc2ccccc21` (some centres not stated) returned a half-inhibitory concentration (IC50) against Prothrombin of 0.75 µM. The compound further yielded an inhibition against Serine protease 1 [2] of 40%.

With `Cc1csc(C(=O)C(CCCNC(=N)N)NC(=O)[C@@H]2CC[C@H]3CN(C(=O)CCc4ccccc4)CC(=O)N32)n1` (some centres not stated), the IC50 against Prothrombin was determined as 0.044 µM; against Serine protease 1 [1] it was 0.024 µM.

`N=C(N)N1CCCC(C[C@H](NC(=O)[C@@H]2CC[C@H]3CN(C(=O)CCc4ccccc4)CC(=O)N32)C(=O)c2nc3ccccc3s2)C1` (some centres not stated): the half-maximal inhibitory concentration (IC50) is less than 0.001 µM against Prothrombin and 0.59 µM against Serine protease 1 [1].

On to `NCCCC[C@H](NC(=O)[C@@H]1CC[C@H]2CN(C(=O)CCc3ccccc3)CC(=O)N21)C(=O)c1nccs1`, for which the IC50 against Prothrombin came out at 0.077 µM; against Serine protease 1 [1] it was 0.014 µM.

Regarding `N=C(N)c1cccc(CC(NC(=O)[C@@H]2CC[C@H]3CN(C(=O)CCc4ccccc4)CC(=O)N32)C(=O)c2nc3ccccc3s2)c1` (some centres not stated), the IC50 against Prothrombin turned out to be 0.057 µM; at Serine protease 1 [1], 0.97 µM.

With `Cc1nc(C(=O)[C@H](CCCN=C(N)N)NC(=O)[C@@H]2CC[C@H]3CN(C(=O)CCc4ccccc4)CC(=O)N32)sc1CCO`, the IC50 amounted to 0.015 µM against Prothrombin and 0.012 µM at Serine protease 1 [1].

Consider `N=C(N)NCCC[C@H](NC(=O)[C@@H]1CC[C@H]2CN(C(=O)CCc3ccccc3)CC(=O)N21)C(=O)c1nccs1`, for which the half-maximal inhibitory concentration (IC50) at Serine protease 1 [1] is less than 0.001 µM.

As to `N=C(N)NCCC[C@H](NC(=O)[C@@H]1CC[C@H]2CN(C(=O)CCc3ccccc3)CC(=O)N21)C(=O)c1nc2ccccc2s1`, the 50% inhibitory concentration (IC50) against Prothrombin and on Serine protease 1 [1] was less than 0.001 µM in each case.
